According to the NIST ThermoML archive (doi:10.1016/j.fluid.2010.05.001):
Numbers after ± are expanded uncertainties.

How the values were obtained:
[1] = xn = mol fraction of the nth substance listed; settings: 101 kPa, Liquid, Vibrating tube method
[2] = 101.33 kPa, Liquid, Vibrating tube method

## CN1CCCCC1 [N-methylpiperidine] + O
[1]; 288.15 K, x1 = 0.0101
  mass density: 994.829 ± 0.29 kg/m3
[1]; 288.15 K, x1 = 0.0728
  mass density: 966.82 ± 0.29 kg/m3
[1]; 288.15 K, x1 = 0.0971
  mass density: 957.332 ± 0.25 kg/m3
[1]; 288.15 K, x1 = 0.1499
  mass density: 939.294 ± 0.22 kg/m3
[1]; 288.15 K, x1 = 0.2452
  mass density: 913.306 ± 0.2 kg/m3
[1]; 288.15 K, x1 = 0.3359
  mass density: 895.82 ± 0.19 kg/m3
[1]; 288.15 K, x1 = 0.3895
  mass density: 886.349 ± 0.18 kg/m3
[1]; 288.15 K, x1 = 0.55
  mass density: 863.074 ± 0.2 kg/m3
[1]; 288.15 K, x1 = 0.66
  mass density: 850.384 ± 0.2 kg/m3
[1]; 288.15 K, x1 = 0.7
  mass density: 846.317 ± 0.21 kg/m3
[1]; 288.15 K, x1 = 0.8
  mass density: 836.071 ± 0.22 kg/m3
[1]; 288.15 K, x1 = 0.9
  mass density: 828.075 ± 0.23 kg/m3
[1]; 298.15 K, x1 = 0.0133
  mass density: 990.926 ± 0.29 kg/m3
[1]; 298.15 K, x1 = 0.0248
  mass density: 985.215 ± 0.31 kg/m3
[1]; 298.15 K, x1 = 0.0299
  mass density: 982.27 ± 0.24 kg/m3
[1]; 298.15 K, x1 = 0.0728
  mass density: 960.309 ± 0.32 kg/m3
[1]; 298.15 K, x1 = 0.0971
  mass density: 949.172 ± 0.25 kg/m3
[1]; 298.15 K, x1 = 0.19
  mass density: 917.46 ± 0.23 kg/m3
[1]; 298.15 K, x1 = 0.2452
  mass density: 903.811 ± 0.19 kg/m3
[1]; 298.15 K, x1 = 0.3359
  mass density: 884.947 ± 0.19 kg/m3
[1]; 298.15 K, x1 = 0.4036
  mass density: 873.347 ± 0.19 kg/m3
[1]; 298.15 K, x1 = 0.453
  mass density: 865.779 ± 0.19 kg/m3
[1]; 298.15 K, x1 = 0.4767
  mass density: 862.238 ± 0.19 kg/m3
[1]; 298.15 K, x1 = 0.505
  mass density: 858.158 ± 0.19 kg/m3
[1]; 298.15 K, x1 = 0.595
  mass density: 846.184 ± 0.2 kg/m3
[1]; 298.15 K, x1 = 0.6987
  mass density: 835.141 ± 0.21 kg/m3
[1]; 298.15 K, x1 = 0.7907
  mass density: 826.047 ± 0.22 kg/m3
[1]; 298.15 K, x1 = 0.8822
  mass density: 819.375 ± 0.23 kg/m3
[1]; 308.15 K, x1 = 0.0133
  mass density: 987.229 ± 0.3 kg/m3
[1]; 308.15 K, x1 = 0.0153
  mass density: 986.286 ± 0.3 kg/m3
[1]; 308.15 K, x1 = 0.0248
  mass density: 980.469 ± 0.4 kg/m3
[1]; 308.15 K, x1 = 0.0299
  mass density: 976.97 ± 0.42 kg/m3
[1]; 308.15 K, x1 = 0.0728
  mass density: 952.068 ± 0.35 kg/m3
[1]; 308.15 K, x1 = 0.0971
  mass density: 941.377 ± 0.29 kg/m3
[1]; 308.15 K, x1 = 0.1972
  mass density: 908.857 ± 0.2 kg/m3
[1]; 308.15 K, x1 = 0.391
  mass density: 866.58 ± 0.2 kg/m3
[1]; 308.15 K, x1 = 0.4972
  mass density: 849.931 ± 0.19 kg/m3
[1]; 308.15 K, x1 = 0.57
  mass density: 840.165 ± 0.19 kg/m3
[1]; 308.15 K, x1 = 0.6987
  mass density: 825.724 ± 0.21 kg/m3
[1]; 308.15 K, x1 = 0.78
  mass density: 818.342 ± 0.21 kg/m3
[1]; 318.15 K, x1 = 0.00418
  mass density: 987.683 ± 0.34 kg/m3
[1]; 318.15 K, x1 = 0.00896
  mass density: 985.125 ± 0.35 kg/m3
[1]; 318.15 K, x1 = 0.0153
  mass density: 981.488 ± 0.36 kg/m3
[1]; 318.15 K, x1 = 0.018
  mass density: 979.939 ± 0.41 kg/m3
[1]; 318.15 K, x1 = 0.02
  mass density: 978.288 ± 0.41 kg/m3
[1]; 318.15 K, x1 = 0.15
  mass density: 912.237 ± 0.32 kg/m3
[1]; 318.15 K, x1 = 0.1972
  mass density: 896.689 ± 0.21 kg/m3
[1]; 318.15 K, x1 = 0.3
  mass density: 874.067 ± 0.2 kg/m3
[1]; 318.15 K, x1 = 0.4972
  mass density: 840.492 ± 0.19 kg/m3
[1]; 318.15 K, x1 = 0.66
  mass density: 821.213 ± 0.2 kg/m3
[1]; 318.15 K, x1 = 0.85
  mass density: 804 ± 0.23 kg/m3
[1]; 328.15 K, x1 = 0.00418
  mass density: 983.308 ± 0.37 kg/m3
[1]; 328.15 K, x1 = 0.00896
  mass density: 980.507 ± 0.37 kg/m3
[1]; 328.15 K, x1 = 0.01
  mass density: 979.617 ± 0.37 kg/m3
[1]; 328.15 K, x1 = 0.0133
  mass density: 977.934 ± 0.33 kg/m3
[1]; 328.15 K, x1 = 0.3823
  mass density: 848.444 ± 0.25 kg/m3
[1]; 328.15 K, x1 = 0.545
  mass density: 824.697 ± 0.19 kg/m3
[1]; 328.15 K, x1 = 0.7049
  mass density: 807.305 ± 0.21 kg/m3
[1]; 328.15 K, x1 = 0.795
  mass density: 800.206 ± 0.21 kg/m3
[1]; 328.15 K, x1 = 0.945
  mass density: 790.511 ± 0.24 kg/m3

## CC1CCCCN1 (stereo unspecified) [2-methylpiperidine]
[2]; 288.15 K
  mass density: 846.703 ± 0.24 kg/m3
  molar volume: 0.0001171 ± 9e-08 m3/mol
[2]; 298.15 K
  mass density: 835.787 ± 0.24 kg/m3
  molar volume: 0.0001187 ± 9e-08 m3/mol
[2]; 308.15 K
  mass density: 826.08 ± 0.24 kg/m3
  molar volume: 0.0001201 ± 9e-08 m3/mol
[2]; 318.15 K
  mass density: 817.349 ± 0.24 kg/m3
  molar volume: 0.0001213 ± 9e-08 m3/mol
[2]; 328.15 K
  mass density: 809.08 ± 0.24 kg/m3
  molar volume: 0.0001226 ± 9e-08 m3/mol
[2]; 338.15 K
  mass density: 801.96 ± 0.24 kg/m3
  molar volume: 0.0001237 ± 9e-08 m3/mol

## CN1CCCCC1 [N-methylpiperidine]
[2]; 288.15 K
  mass density: 822.237 ± 0.24 kg/m3
  molar volume: 0.0001206 ± 4e-08 m3/mol
[2]; 298.15 K
  mass density: 810.887 ± 0.24 kg/m3
  molar volume: 0.0001223 ± 5e-08 m3/mol
[2]; 308.15 K
  mass density: 803.846 ± 0.24 kg/m3
  molar volume: 0.0001234 ± 5e-08 m3/mol
[2]; 318.15 K
  mass density: 796.931 ± 0.24 kg/m3
  molar volume: 0.0001244 ± 5e-08 m3/mol
[2]; 328.15 K
  mass density: 785.64 ± 0.24 kg/m3
  molar volume: 0.0001262 ± 5e-08 m3/mol
[2]; 338.15 K
  mass density: 781.618 ± 0.24 kg/m3
  molar volume: 0.0001269 ± 5e-08 m3/mol

## CC1CCCCN1 (stereo unspecified) [2-methylpiperidine] + O
[1]; 288.15 K, x1 = 0.022
  mass density: 992.158 ± 0.24 kg/m3
[1]; 288.15 K, x1 = 0.0488
  mass density: 982.491 ± 0.24 kg/m3
[1]; 288.15 K, x1 = 0.0966
  mass density: 965.22 ± 0.22 kg/m3
[1]; 288.15 K, x1 = 0.1901
  mass density: 940.03 ± 0.19 kg/m3
[1]; 288.15 K, x1 = 0.3019
  mass density: 918.147 ± 0.18 kg/m3
[1]; 288.15 K, x1 = 0.4006
  mass density: 904.274 ± 0.18 kg/m3
[1]; 288.15 K, x1 = 0.47
  mass density: 896.239 ± 0.18 kg/m3
[1]; 288.15 K, x1 = 0.59
  mass density: 883.489 ± 0.19 kg/m3
[1]; 288.15 K, x1 = 0.685
  mass density: 874.59 ± 0.2 kg/m3
[1]; 288.15 K, x1 = 0.775
  mass density: 866.186 ± 0.21 kg/m3
[1]; 288.15 K, x1 = 0.813
  mass density: 863.581 ± 0.22 kg/m3
[1]; 298.15 K, x1 = 0.0506
  mass density: 976.147 ± 0.27 kg/m3
[1]; 298.15 K, x1 = 0.0951
  mass density: 957.78 ± 0.22 kg/m3
[1]; 298.15 K, x1 = 0.1955
  mass density: 930.75 ± 0.2 kg/m3
[1]; 298.15 K, x1 = 0.288
  mass density: 911.236 ± 0.18 kg/m3
[1]; 298.15 K, x1 = 0.3958
  mass density: 894.275 ± 0.18 kg/m3
[1]; 298.15 K, x1 = 0.45
  mass density: 886.977 ± 0.18 kg/m3
[1]; 298.15 K, x1 = 0.4708
  mass density: 884.952 ± 0.17 kg/m3
[1]; 298.15 K, x1 = 0.5925
  mass density: 871.352 ± 0.19 kg/m3
[1]; 298.15 K, x1 = 0.7
  mass density: 860.793 ± 0.2 kg/m3
[1]; 298.15 K, x1 = 0.8043
  mass density: 851.545 ± 0.21 kg/m3
[1]; 308.15 K, x1 = 0.0506
  mass density: 969.86 ± 0.28 kg/m3
[1]; 308.15 K, x1 = 0.0951
  mass density: 951.024 ± 0.23 kg/m3
[1]; 308.15 K, x1 = 0.1955
  mass density: 921.38 ± 0.2 kg/m3
[1]; 308.15 K, x1 = 0.288
  mass density: 902.606 ± 0.18 kg/m3
[1]; 308.15 K, x1 = 0.388
  mass density: 886.089 ± 0.18 kg/m3
[1]; 308.15 K, x1 = 0.463
  mass density: 875.982 ± 0.18 kg/m3
[1]; 308.15 K, x1 = 0.585
  mass density: 861.756 ± 0.19 kg/m3
[1]; 308.15 K, x1 = 0.6501
  mass density: 855.347 ± 0.2 kg/m3
[1]; 318.15 K, x1 = 0.0506
  mass density: 963.421 ± 0.29 kg/m3
[1]; 318.15 K, x1 = 0.0951
  mass density: 943.575 ± 0.24 kg/m3
[1]; 318.15 K, x1 = 0.1955
  mass density: 912.95 ± 0.21 kg/m3
[1]; 318.15 K, x1 = 0.288
  mass density: 893.567 ± 0.18 kg/m3
[1]; 318.15 K, x1 = 0.388
  mass density: 876.681 ± 0.18 kg/m3
[1]; 318.15 K, x1 = 0.463
  mass density: 866.663 ± 0.18 kg/m3
[1]; 318.15 K, x1 = 0.585
  mass density: 852.312 ± 0.19 kg/m3
[1]; 318.15 K, x1 = 0.6501
  mass density: 846.574 ± 0.2 kg/m3
[1]; 328.15 K, x1 = 0.05
  mass density: 957.601 ± 0.3 kg/m3
[1]; 328.15 K, x1 = 0.0982
  mass density: 935.269 ± 0.32 kg/m3
[1]; 328.15 K, x1 = 0.3019
  mass density: 883.044 ± 0.2 kg/m3
[1]; 328.15 K, x1 = 0.4006
  mass density: 867.078 ± 0.18 kg/m3
[1]; 328.15 K, x1 = 0.4585
  mass density: 859.202 ± 0.18 kg/m3
[1]; 328.15 K, x1 = 0.5699
  mass density: 846.009 ± 0.19 kg/m3
[1]; 328.15 K, x1 = 0.6591
  mass density: 836.942 ± 0.2 kg/m3
[1]; 328.15 K, x1 = 0.775
  mass density: 826.192 ± 0.21 kg/m3
[1]; 338.15 K, x1 = 0.0951
  mass density: 926.141 ± 0.23 kg/m3
[1]; 338.15 K, x1 = 0.1901
  mass density: 897.2 ± 0.2 kg/m3
[1]; 338.15 K, x1 = 0.3019
  mass density: 873.469 ± 0.19 kg/m3
[1]; 338.15 K, x1 = 0.365
  mass density: 863.604 ± 0.18 kg/m3
[1]; 338.15 K, x1 = 0.4585
  mass density: 850.39 ± 0.18 kg/m3
[1]; 338.15 K, x1 = 0.5925
  mass density: 834.463 ± 0.19 kg/m3
[1]; 338.15 K, x1 = 0.8043
  mass density: 816.519 ± 0.22 kg/m3
